One assay concerns the target T1, SIK1 (Homo sapiens, UniProt P57059).
T1 construct: purchased Carna Biosciences 02-131
In words: ADP-Glo kinase assay, SIK1. It counts as biochemical. The following applies: ADP-Glo SIK kinase assay. The essentials:
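Enzyme–substrate mix was started with ATP and incubated 120 min at RT. ADP formed was quantified by ADP-Glo: 40 min ATP depletion, then 30 min detection reagent converting ADP to ATP for luciferase luminescence, which rises with kinase activity. Controls: 1% DMSO and 10 μM staurosporine (final).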
(In general: ADP-Glo turns the ADP formed in a reaction into a luminescent signal.)

Another assay relates to TNFα. Description: Mouse LPS-induced endotoxic shock, plasma TNFα. The format is in vivo. Particulars: 3 mg/kg, p.o.; plasma 90 min after LPS challenge. Set-up: key: +: statistically significant inhibition of TNFα; −: no effect on the level of TNFα. As to the method:
(§1) Injection of lipopolysaccharide (LPS) induces a rapid release of soluble tumour necrosis factor (TNFα) into the periphery. This model was used to assess prospective blockers of TNFα release in vivo.
(§2) Lipopolysaccharide (LPS) from Escherichia Coli serotype O111:B4 was obtained from Sigma Aldrich (Cat #L2630).
(§3) BALB/cAnNCrl mice (female, 18-20 g body weight) were obtained from Charles River (Calco, Italy). Mice were kept on a 12 h light/dark cycle. Temperature was maintained at 22±2° C., food and water were provided ad libitum.
(§4) Mice were dosed once by oral (p.o.) or subcutaneous (sc) route with the tested compound in the appropriate vehicle.
(§5) At the Tmax of compound, 100 μg of LPS (in H2O) was injected intraperitoneally to mice. A control group was included which comprises administering the vehicle without an LPS challenge.
(§6) Mice were sacrificed 90 min after LPS challenge and blood was collected in heparinised tubes. Plasma was obtained by centrifugation for 15 min, 2000×g at +4° C. and frozen at −80° C. before cytokine analysis.
(§7) TNFα and IL-10 were quantified in plasma by AlphaLISA detection kits obtained from PerkinElmer (Massachusetts, USA), Cat4 AL505C and AL502C, respectively.
(§8) Statistics were performed with Prism 5.03 software (GraphPad) using an ANOVA analysis of variance with Dunnett's post-hoc test versus LPS group.
(§9) Active compounds were defined as showing a statistically significant decrease in TNFα with or without a statistically significant induction of IL-10

The test system of the next assay is IL-10. In words: Mouse LPS-induced endotoxic shock, plasma IL-10. The format is in vivo. Set-up: key: +: statistically significant induction of IL-10; −: no effect on the level of IL-10. Particulars: 3 mg/kg, p.o.; plasma 90 min after LPS challenge. As to the method:
as §1, §2, §3, §4, §5, §6, §7, §8, §9

The next assay has as its target T2, SIK2 (Homo sapiens, UniProt Q9H0K1).
T2 construct: purchased ThermoFisher Scientific PV4792
In words: ADP-Glo kinase assay, SIK2. Particulars: ADP-Glo SIK kinase assay. The format is biochemical. The essentials:
(§10)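 ADP-Glo, RT throughout. Enz/substrate + ATP, 120 min; ADP-Glo reagent 40 min (ATP depletion); detection reagent 30 min; luminescence read. Neg ctrl 1% DMSO, pos ctrl 10 μM staurosporine, final concs.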

Assay [1] concerns LPS-induced TNFα in monocyte-derived macrophages (MdM). In words: MdM assay: LPS-triggered TNFα (ELISA). It counts as cell-based, human. Particulars: Homo sapiens, Macrophage, 20 h, monocyte-derived macrophages, LPS 200 ng/mL, supernatant after 20 h; read-out: TNFα EC50. How it is done:
This assay evaluates illustrative compounds of the invention for their inhibition of LPS-induced TNFα and LPS triggered IL-10 secretion in monocyte-derived macrophages.
PBMCs are isolated from human blood samples (buffycoats). The buffy coat is aseptically transferred into a 50 mL Falcon tube, and diluted 1/2 in PBS. Falcon tubes are filled with 20 mL Lymphoprep™, on top of which 25 mL of the buffy coat is carefully added, tubes are centrifuged for 35 min at 400 g in temperature controlled centrifuge, without brake, at 25° C. PBMCs are aspirated from the white interface layer between sample and Lymphoprep™. PBMCs are washed five times in PBS.
PBMCs are centrifuged at 300×g for 10 min and resuspended at a density of 1.0*10^7 cells/80 μL Miltenyi buffer (PBS, pH 7.4, 1% FBS, 2 mM EDTA).
Starting from this point of the protocol all steps are performed on ice. 20 μL of CD14+ micro-beads are added per 1.0*10^7 cells, the tube is mixed and incubated for 15 min in the fridge at 4° C. Cell suspension volume is adjusted to total volume of 100 mL using Miltenyi buffer, mixed gently and subsequently centrifuged for 10 min at 300×g. Supernantant is discarded and cell pellet is resuspended in 12 mL of Miltenyi buffer.
Four LS columns are placed in the MACS Separator (magnet) from Miltenyi Biotec, and are prewet by rinsing with 3 mL of MACS buffer per column. Three mL of cell suspension is added onto the column (max 1*10^8 of labelled cells/column), and columns are subsequently washed 3 times with 3 mL of Miltenyi buffer.
The columns are removed from the magnets, and 5 mL of Miltenyi buffer are added to the column to flush out the CD14+ fraction by pushing the plunger into the column. The flushed fractions are collected in a fresh 50 mL Falcon and volume is adjusted to 30 mL using Miltenyi buffer, cells are centrifuged for 10 min at 300×g. The obtained cell pellet is resuspended in 10 mL RPMI w/o FBS, and cell density is determined using a hematologic analyser (Sysmex XS-500i).
On day 10, MdMs are triggered and compound is added.
A compound dilution plate is made in 100% DMSO by 3-fold dilution of 10 mM stock solution. An intermediate dilution plate (10× final concentration) is made by diluting the compound dilution plate 50-fold in RPMI medium.
Medium is carefully removed from cell plates using multichannel pipette, and replaced by 80 μL fresh medium. 10 μL of the 10× final concentration compound is added to the cells and incubated for 1 hour at 37° C. before addition of trigger. No trigger conditions/trigger conditions are spiked with equal final DMSO concentrations of 0.2% DMSO. 10 μL of 10×LPS (final conc. 200 ng/mL) solution are added to all wells except for the ‘no trigger wells’ where 10 μL medium is added. Supernatant is collected after 2 h (IL-10 determination) and after 20 h (TNFα determination) of LPS triggering.
The plate is then washed once with PBST (PBS+0.05% Tween20) and once with PBS followed by the addition of 100 μL of blocking buffer (1% Bovine Serum Albumin (BSA)−5% Sucrose) and plates are sealed and incubated for at least 4 h at RT. After washing the plate once with PBST and once with PBS, 40 μL of standard or sample are added (TNFα standard curve is prepared using a 1/2 serial dilution starting from […]; dilutions are made in dilution buffer (PBS+1% BSA)). Plates are washed twice with PBST, and once with PBS, after which 35 μL of the detection antibody is added (final concentration 0.25 μg/mL diluted in dilution buffer) and plates are incubated for at least 2 h at RT. Plates are washed twice with PBST, and once with PBS, where after 35 μL of Strep-HRP conjugate (0.5 μg/mL final concentration diluted in dilution buffer) is added. Plates are incubated in the dark, at RT for at least 45 min but no longer than 1 hour. Plates are washed twice with PBST, and once with PBS.
On the technique in general: In an ELISA, binding on a coated surface is turned into a signal by an enzyme label.

Another assay has as its target T3, SIK3 (Homo sapiens, UniProt Q9Y2K2).
T3 construct: purchased SignalChem S12-11G-100
Description: ADP-Glo kinase assay, SIK3. Particulars: ADP-Glo SIK kinase assay. It counts as biochemical. The procedure, abridged:
as §10

Assay [2] deals with LPS triggered IL-10 secretion in monocytes. In words: Monocytes assay: LPS-triggered IL-10 (ELISA). It counts as cell-based, human. The following applies: LPS 200 ng/mL, supernatant after 4 h, maximal fold change vs LPS only. The procedure, abridged:
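Human CD14+ monocytes, magnetically isolated from buffy-coat PBMCs, were seeded at 100 000 cells/well and preincubated with compound for 1 h at 37° C (0.2% DMSO). LPS was then added at a final 200 ng/mL for 4 h. Supernatant IL-10 was quantified by chemiluminescent sandwich ELISA against a standard curve.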

The test system of assay [3] is LPS-induced TNFα in monocytes. Description: Monocytes assay: LPS-triggered TNFα (ELISA). The format is cell-based, human. The following applies: Homo sapiens, Monocyte, 4 h, LPS 200 ng/mL, supernatant after 4 h. The essentials: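 Human CD14+ monocytes from buffy-coat PBMCs (magnetic bead selection) were seeded at 100 000 cells/well and pretreated with compound for 1 h at 37° C (0.2% DMSO). They were then stimulated with 200 ng/mL LPS for 4 h, and supernatant TNFα was measured by chemiluminescent sandwich ELISA as percent inhibition.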

Molecules are shown by their SMILES. pEC50, pIC50: −log10 of the molar value.

T2 sequence (Q9H0K1 whole entry): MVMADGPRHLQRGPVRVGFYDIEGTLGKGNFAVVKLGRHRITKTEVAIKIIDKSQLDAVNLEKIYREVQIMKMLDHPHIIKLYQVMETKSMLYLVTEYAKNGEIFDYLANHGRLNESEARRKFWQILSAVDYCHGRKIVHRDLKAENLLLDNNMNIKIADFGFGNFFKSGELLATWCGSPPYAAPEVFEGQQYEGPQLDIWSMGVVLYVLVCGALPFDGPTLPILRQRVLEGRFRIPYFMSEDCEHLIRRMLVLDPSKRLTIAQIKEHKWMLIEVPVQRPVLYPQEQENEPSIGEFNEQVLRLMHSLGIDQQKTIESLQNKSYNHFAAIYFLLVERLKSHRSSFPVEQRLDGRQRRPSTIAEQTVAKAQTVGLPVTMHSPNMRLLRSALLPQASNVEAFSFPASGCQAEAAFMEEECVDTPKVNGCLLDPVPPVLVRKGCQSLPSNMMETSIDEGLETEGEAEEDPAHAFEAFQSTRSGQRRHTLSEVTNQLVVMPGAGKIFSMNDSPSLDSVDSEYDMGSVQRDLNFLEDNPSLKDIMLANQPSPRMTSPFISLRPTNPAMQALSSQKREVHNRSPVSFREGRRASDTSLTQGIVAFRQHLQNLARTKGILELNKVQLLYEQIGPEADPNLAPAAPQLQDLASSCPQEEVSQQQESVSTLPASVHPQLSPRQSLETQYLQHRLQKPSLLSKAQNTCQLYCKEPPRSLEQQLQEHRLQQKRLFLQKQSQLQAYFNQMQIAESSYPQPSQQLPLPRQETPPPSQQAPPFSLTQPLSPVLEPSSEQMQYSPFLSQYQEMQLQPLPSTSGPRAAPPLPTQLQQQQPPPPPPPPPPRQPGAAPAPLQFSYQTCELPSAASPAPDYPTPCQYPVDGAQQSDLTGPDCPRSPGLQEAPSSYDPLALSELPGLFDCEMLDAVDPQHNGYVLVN
T3 sequence (Q9Y2K2 whole entry): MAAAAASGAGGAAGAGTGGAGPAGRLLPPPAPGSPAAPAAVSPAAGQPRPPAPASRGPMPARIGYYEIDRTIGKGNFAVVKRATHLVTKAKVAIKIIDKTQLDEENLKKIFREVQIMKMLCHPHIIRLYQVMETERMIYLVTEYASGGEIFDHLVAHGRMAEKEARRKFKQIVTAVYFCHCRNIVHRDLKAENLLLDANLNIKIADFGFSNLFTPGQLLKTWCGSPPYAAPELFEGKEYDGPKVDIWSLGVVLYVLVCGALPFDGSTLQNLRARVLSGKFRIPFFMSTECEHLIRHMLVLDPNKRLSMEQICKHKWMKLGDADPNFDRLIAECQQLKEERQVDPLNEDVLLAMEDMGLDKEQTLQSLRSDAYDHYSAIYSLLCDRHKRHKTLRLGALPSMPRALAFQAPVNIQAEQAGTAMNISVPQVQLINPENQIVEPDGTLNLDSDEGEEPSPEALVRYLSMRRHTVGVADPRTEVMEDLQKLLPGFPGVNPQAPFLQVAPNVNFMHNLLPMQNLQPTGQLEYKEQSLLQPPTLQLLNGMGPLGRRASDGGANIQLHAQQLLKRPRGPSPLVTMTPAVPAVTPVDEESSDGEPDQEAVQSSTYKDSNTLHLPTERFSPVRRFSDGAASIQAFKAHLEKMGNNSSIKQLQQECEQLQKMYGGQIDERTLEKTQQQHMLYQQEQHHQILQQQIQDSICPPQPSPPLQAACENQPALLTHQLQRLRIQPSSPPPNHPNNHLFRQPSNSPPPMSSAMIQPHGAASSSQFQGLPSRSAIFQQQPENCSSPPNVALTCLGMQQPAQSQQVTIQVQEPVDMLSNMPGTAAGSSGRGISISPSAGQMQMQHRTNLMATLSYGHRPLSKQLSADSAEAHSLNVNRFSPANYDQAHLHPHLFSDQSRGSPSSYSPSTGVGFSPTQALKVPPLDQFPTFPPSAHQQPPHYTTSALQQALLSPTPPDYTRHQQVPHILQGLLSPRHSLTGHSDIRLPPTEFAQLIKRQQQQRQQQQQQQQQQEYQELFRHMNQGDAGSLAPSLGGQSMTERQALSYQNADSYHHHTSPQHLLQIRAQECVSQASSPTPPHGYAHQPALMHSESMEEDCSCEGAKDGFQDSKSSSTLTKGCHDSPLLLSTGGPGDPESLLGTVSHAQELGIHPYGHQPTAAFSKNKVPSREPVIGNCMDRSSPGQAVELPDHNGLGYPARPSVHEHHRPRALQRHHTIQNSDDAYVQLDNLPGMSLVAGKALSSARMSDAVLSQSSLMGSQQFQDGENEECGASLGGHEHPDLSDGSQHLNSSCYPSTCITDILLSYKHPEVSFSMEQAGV
T1 sequence (P57059 whole entry): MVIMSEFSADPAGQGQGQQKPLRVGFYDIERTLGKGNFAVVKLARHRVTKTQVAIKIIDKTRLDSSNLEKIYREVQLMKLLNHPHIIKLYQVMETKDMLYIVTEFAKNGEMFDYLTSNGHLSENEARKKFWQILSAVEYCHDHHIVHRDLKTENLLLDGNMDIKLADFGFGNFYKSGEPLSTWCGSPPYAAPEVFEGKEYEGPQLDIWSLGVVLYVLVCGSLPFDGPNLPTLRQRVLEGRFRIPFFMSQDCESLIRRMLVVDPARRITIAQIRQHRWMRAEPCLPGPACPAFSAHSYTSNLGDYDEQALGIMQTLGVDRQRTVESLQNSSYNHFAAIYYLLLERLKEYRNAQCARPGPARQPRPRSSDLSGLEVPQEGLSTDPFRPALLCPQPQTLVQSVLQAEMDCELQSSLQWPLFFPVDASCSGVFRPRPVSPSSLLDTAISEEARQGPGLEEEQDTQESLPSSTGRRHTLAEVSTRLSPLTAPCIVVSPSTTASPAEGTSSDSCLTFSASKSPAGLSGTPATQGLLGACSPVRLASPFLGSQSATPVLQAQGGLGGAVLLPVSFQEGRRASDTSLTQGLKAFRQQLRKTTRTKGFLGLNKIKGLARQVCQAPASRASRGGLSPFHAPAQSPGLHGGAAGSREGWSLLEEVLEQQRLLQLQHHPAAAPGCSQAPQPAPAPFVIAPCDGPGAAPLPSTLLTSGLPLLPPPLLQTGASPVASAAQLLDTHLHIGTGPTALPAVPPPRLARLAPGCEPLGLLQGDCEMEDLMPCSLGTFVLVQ

As usually defined, the pIC50 is the IC50 on a negative log10 scale, so that one unit is a factor of ten. Usually pEC50 stands for the negative decadic logarithm of the EC50, by convention in mol/L. On to `COc1cc(-c2cnc3cc(OCCCN4CCCCC4)ccn23)cc(OC(F)F)c1C(=O)NC1CC1` [compound 16, N-cyclopropyl-2-(difluoromethoxy)-6-methoxy-4-[7-[3-(1-piperidyl)propoxy]imidazo [1,2-a]pyridin-3-yl]benzamide], for which the figures for the negative logarithm of the IC50 (pIC50) on SIK1, against SIK2 and against SIK3 were 7.00 to 8.00, 8.00 to 11.00 and 8.00 to 11.00, respectively. Besides, in the assay on TNFα, the TNFα entry is given as “−”. Also, the IL-10 entry with IL-10 is reported as “−”. Further, the negative logarithm of the EC50 (pEC50) in assay [1] was 7.00 to 10.00.

Turning to `COc1cc(-c2cnc3cc(OCC(O)CN4CC(C(=O)OC(C)(C)C)C4)ccn23)cc(OC(F)F)c1C(=O)NC1CC1` (centres unmarked) [compound 394, tert-butyl 1-[3-[3-[4-(cyclopropylcarbamoyl)-3-(difluoromethoxy)-5-methoxy-phenyl]imidazo[1,2-a]pyridin-7-yl]oxy-2-hydroxy-propyl]azetidine-3-carboxylate], the pIC50 at SIK1 was 7.00 to 8.00; against SIK2 it was 8.00 to 11.00; against SIK3 it was 8.00 to 11.00. Further, the “IL-10 FCmax median” value in assay [2] is “++ (>1.5-4.5)”. Moreover, the pEC50 in assay [3] was 7.00 to 10.00.

These data come from patent US12264156B2, “Compounds and pharmaceutical compositions thereof for the treatment of diseases” (GALAPAGOS NV, priority 2018, dated 2025).
